Test results taken from BindingDB's records for patent US20240092761 (Iambic Therapeutics, 2024).

Assays:
[1] = biological target: Cyclin-dependent kinase/G2/mitotic-specific cyclin- 1 (Homo sapiens, UniProt P06493); test: CDK1/Cyclin B1 ADP-Glo Kinase Assay
Method: The luminescent signal generated is proportional to the ADP concentration produced and is correlated with the kinase activity. CDK1/Cyclin B1 was purchased from Carna (Cat 04-102). Typical reaction solutions (10 uL final reaction volume) contained 2% DMSO (f inhibitor), 10 mM MgCl2, 1 mM EGTA, 0.05% BSA, 2 mM DTT, 80 uM ATP (ATP Km=78.6 uM), 0.01% Brig-35, 0.75 uM substrate, and 4.917 nM CDK1/Cyclin Bl enzyme complex in 50 mM HEPES buffer at pH 7.5. The assay was initiated with the addition of ATP-containing substrate solution, following a 30-minute pre-incubation of enzyme and inhibitor at room temperature in the reaction mixture. The reaction was stopped after 90 minutes at room temperature by the addition of 10 uL of ADP-GLO Reagent. After a 90 minute incubation, 20 uL of Kinase Detection Reagent was added. Samples were incubated for 40 minutes, after which plate well luminescence was measured on a Envision microplate reader.

[2] = biological target: Cyclin-dependent kinase 2/G1/S-specific cyclin-E1 (Homo sapiens, UniProt P24941); test: CDK2/Cyclin E1 Full Length ADP-Glo Kinase Assay
Method: ADP-Glo is performed in 2 steps upon completion of kinase reaction: a combined termination of kinase reaction and depletion of remaining ATP in the first step, and conversion of generated ADP to ATP and the newly produced ATP to light output using luciferase/luciferin reaction in the second step. The luminescent signal generated is proportional to the ADP concentration produced and is correlated with the kinase activity. CDK2/Cyclin E1 was purchased from Eurofins (Cat 14-475M). Typical reaction solutions (10 uL final reaction volume) contained 2% DMSO (f inhibitor), 10 mM MgCI2, 1 mM EGTA, 0.05% BSA, 2 mM DTT, 20 uM ATP (ATP Km=64.78 uM), 0.01% Brig-35, 0.75 uM substrate, and 0.328 nM wild-type full length CDK2/Cyclin E1 enzyme complex in 50 mM HEPES buffer at pH 7.5. The assay was initiated with the addition of ATP-containing substrate solution, following a 30-minute pre-incubation of enzyme and inhibitor at room temperature in the reaction mixture. The reaction was stopped after 90 minutes at room temperature by the addition of 10 uL of ADP-GLO Reagent. After a 90 minute incubation, 20 uL of Kinase Detection Reagent was added. Samples were incubated for 40 minutes, after which plate well luminescence was measured on a Envision microplate reader.

[3] = biological target: Cyclin-dependent kinase 4/G1/S-specific cyclin-D1 (Homo sapiens, UniProt P11802); test: CDK4/Cyclin D1 Mobility Shift Assay (MSA)
Chain of Cyclin-dependent kinase 4/G1/S-specific cyclin-D1 (P11802 whole entry): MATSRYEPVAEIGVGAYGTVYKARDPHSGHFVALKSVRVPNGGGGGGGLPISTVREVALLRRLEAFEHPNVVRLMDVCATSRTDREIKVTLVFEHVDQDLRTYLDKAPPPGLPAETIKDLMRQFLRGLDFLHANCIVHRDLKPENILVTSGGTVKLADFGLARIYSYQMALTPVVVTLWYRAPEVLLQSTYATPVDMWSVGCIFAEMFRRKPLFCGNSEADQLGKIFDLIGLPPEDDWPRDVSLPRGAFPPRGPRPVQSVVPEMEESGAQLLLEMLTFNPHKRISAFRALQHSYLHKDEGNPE
Chain of Cyclin-dependent kinase 4/G1/S-specific cyclin-D1 (P24385 whole entry, further chain): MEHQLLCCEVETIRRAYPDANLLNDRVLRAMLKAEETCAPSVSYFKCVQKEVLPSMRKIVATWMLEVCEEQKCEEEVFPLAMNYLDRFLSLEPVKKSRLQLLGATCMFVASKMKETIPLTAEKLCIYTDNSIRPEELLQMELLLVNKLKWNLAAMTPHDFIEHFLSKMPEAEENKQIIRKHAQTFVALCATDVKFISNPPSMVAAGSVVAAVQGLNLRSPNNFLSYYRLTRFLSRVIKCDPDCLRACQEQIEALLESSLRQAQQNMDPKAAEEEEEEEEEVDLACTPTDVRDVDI
Method: CDK4/Cyclin D1 catalyzes the production of ADP from ATP that accompanies the phosphoryl transfer to the substrate peptide 5-FAM-Dyrktide (5-FAM-RRRFRPASPLRGPPK) (Perkin Elmer Peptide 34). The mobility shift assay (MSA) electrophoretically separates the fluorescently labelled peptides (substrate and phosphorylated product) following the kinase reaction. Both substrate and product are measured, and the ratio of these values is used to generate % conversion of substrate to product by the LabChip EZ Reader. Typical reaction solutions contained 2% DMSO (+/−inhibitor), 10 mM MgCl2, 1 mM EGTA, 0.05% BSA, 2 mM DTT, 0.2 mM ATP, 0.01% Brig-35, 1.5 uM 5-FAM-Dyrktide, 2.5 nM CDK4/Cyclin D1 in 50 mM HEPES buffer at pH 7.5. The reaction was initiated with the addition of substrate solution, following a 30-minute pre-incubation of enzyme and inhibitor at 22° C. in the reaction mix. The reaction was stopped after 180 minutes by the addition of 75 uL of 500 mM EDTA and measured on a Perkin Elmer EZ reader instrument.

Chain of Cyclin-dependent kinase/G2/mitotic-specific cyclin- 1 (P06493 whole entry): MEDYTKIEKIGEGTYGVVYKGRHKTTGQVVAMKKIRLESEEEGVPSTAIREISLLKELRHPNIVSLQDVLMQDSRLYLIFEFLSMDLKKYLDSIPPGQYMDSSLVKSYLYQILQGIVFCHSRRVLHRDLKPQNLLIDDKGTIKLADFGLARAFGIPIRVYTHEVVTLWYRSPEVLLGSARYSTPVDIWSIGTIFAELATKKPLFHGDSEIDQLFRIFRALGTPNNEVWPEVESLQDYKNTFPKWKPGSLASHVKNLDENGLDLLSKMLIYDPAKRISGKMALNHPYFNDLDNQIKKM
Chain of Cyclin-dependent kinase/G2/mitotic-specific cyclin- 1 (P14635 whole entry, further chain): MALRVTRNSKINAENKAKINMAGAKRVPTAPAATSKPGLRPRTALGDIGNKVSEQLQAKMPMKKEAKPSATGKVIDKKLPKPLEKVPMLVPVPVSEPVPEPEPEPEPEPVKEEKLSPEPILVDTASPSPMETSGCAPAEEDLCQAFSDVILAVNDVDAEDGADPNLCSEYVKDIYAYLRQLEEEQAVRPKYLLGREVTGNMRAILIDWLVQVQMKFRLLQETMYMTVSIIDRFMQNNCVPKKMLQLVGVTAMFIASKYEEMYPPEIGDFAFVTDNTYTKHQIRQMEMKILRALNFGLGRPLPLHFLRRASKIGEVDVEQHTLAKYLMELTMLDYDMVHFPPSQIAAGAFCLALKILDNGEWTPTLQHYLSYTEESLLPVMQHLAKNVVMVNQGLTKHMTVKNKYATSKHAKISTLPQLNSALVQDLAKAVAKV

- IC50 [1]: > 2000 nM
- IC50 [2]: < 200 nM
- IC50 [3]: 200 to 500 nM
Compound: CS(=O)(=O)N1CCC(Nc2ncc3cccc(N4CCC(N5CCC5)C4)c3n2)CC1 (stereo not drawn) [US20240092761, Compound 32]
